Assay results as given in US10925865B2, “Charged ion channel blockers and methods for use” (Nocion Therapeutics, Inc., priority 2019, dated 2021).

Tests used:
[1] = target: T1, NaV1.7 (Homo sapiens, UniProt Q15858); assay: Nav1.7 whole cell patch clamp, internal block (intracellular inhibition); type: cell-based; details: test concentration 10 μM, compound in internal solution, 5 Hz stimulation
T1 construct: expressed in transfected cells; host or cells: Tetracycline-inducible cell line kept under hygromycin and blasticidin selection
Experimental: (§1) The compounds were synthesized according to the described method and tested for the ability to inhibit voltage-gated sodium channels.
(§2) NaV1.7 was expressed upon induction with tetracycline. Cells were cultured in DMEM containing 10% dialyzed Fetal Bovine Serum (VWR, Radnor, Pa.), 1% Glutamax (VWR, Radnor, Pa.), 1% Penicillin-Streptomycin (VWR, Radnor, Pa.), 100 mg/L Hygromycin (Thermo Fisher Scientific, Waltham, Mass. and 5 mg/L Blasticidin (Alfa Aesar, Haverhill, Mass.). Cells were grown and maintained at 37° C. in a humidified environment containing 10% CO2 in air. Cells were detached from the culture flask for passage and harvested using 0.05% Trypsin-EDTA (Thermo Fisher Scientific, Waltham, Mass.). To induce NaV1.7, cells were induced with tetracycline ([…], IBI Scientific, Peosta, Iowa) the day before recording and plated onto 24-well plates. Cells were washed with DPBS (VWR, Radnor, Pa.), trypsinized and then triturated five times in 10 mL of growth media to break apart cell aggregates. For one 24-well plate, 2 mL of cell suspension was mixed with 23 mL of fresh growth media and […] tetracycline added. 1 ml of mixed media with cells was then added to each well of a 24-well plate, with a 12 mm coverslip already placed in the bottom of the well. Cells were then incubated in 37° C. and 10% CO2 overnight.
(§3) The intracellular solution contained the following (in mM) CsCl 135, NaCl 10, EGTA 10, HEPES 10, MgCl2 2, adjusted to pH 7.2 with CsOH. The external solution was a normal Ringer solution containing (in mM) NaCl 155, HEPES 10, glucose 10, KCl 3.5, CaCl2 1.5, MgCl2 1 adjusted to pH 7.4 with NaOH. CsCl is from Alfa Aesar, Haverhill, Mass. All other chemicals are from Sigma-Aldrich, St. Louis, Mo. In order to test the degree of internal block by test compounds the compounds were dissolved in internal solution at the indicated test concentration. […] In order to test the degree of external block by test compounds the compounds were dissolved in external solution at the indicated test concentration.
(§4) 18-24 hours after cells were induced with tetracycline, coverslips were placed into a chamber filled with Normal Ringer solution at room temperature and the chamber placed on a microscope. Pipettes were pulled from borosilicate glass on a P97 puller (Sutter Instrument, Novato, Calif.) and polished with a MF-830 Microforge (Narishige International USA, Inc., Amityville, N.Y.) to have a resistance of 1.5-2.5 MQ when filled with CsCl internal solution at room temperature. Healthy cells (those that are round and translucent with no visible blemishes) were chosen for seal formation. A seal was formed between the pipette and the cell, and a brief pulse of suction was used to “break in” and establish the whole-cell configuration. The membrane potential was held at −100 mV before the voltage protocol began. Only cells with series resistance between 1.5-5 MQ were retained for analysis. The voltage protocol was as follows: Cells were held at −100 mV for 12 ms followed by a hyperpolarizing step to −105 mV for 12 ms to monitor the leak. Cells were then stepped back to −100 mV for 40 ms. Cells were then depolarized to −20 mV for 10 ms and then returned to −100 mV for 26 ms (The FIGURE).
(§5) Once the recording was started, the voltage protocol was run at 30 second intervals for 5 minutes to get a stable baseline. […] Currents were recorded using PatchMaster software with Heka EPC10 (HEKA Electronics, Lambrecht, Germany). […]

[2] = target: T1, NaV1.7; assay: Nav1.7 whole cell patch clamp, external block (extracellular application); type: cell-based; details: test concentration 30 μM, compound in external solution for 5 minutes, 5 Hz stimulation
Experimental: as §1, §2, §3, §4, §5

[3] = tested on: artificial lipid membrane; assay: PAMPA membrane permeability assay; type: in vitro ADME; details: pH 7.4 buffer, GIT lipid, 4 hours incubation
Experimental: The PAMPA assay (pION, Inc., Woburn Mass.) was used to determine the ability of compounds of the invention to cross an artificial lipid membrane by passive diffusion. Test compounds were dissolved in DMSO (10 mM) and diluted 200-fold in buffer (pION Inc., pH 7.4) to provide 50 uM stock solutions. Buffer (150 μL) was added to a UV blank plate and stock solutions (150 μL) were transferred to a UV reference plate. The blank and reference spectrum were read using a spectrophotometer. Stock solutions (200 μL) were added to the donor plate of the PAMPA sandwich plate and an accept plate painted with GIT lipid (pION Inc., 5 μL) was placed on top. Buffer (200 μL) was added to the acceptor plate and the PAMPA sandwich plate was incubated for 4 hours. Aliquots (150 μL) from the acceptor plate were added to a UV plate and read as acceptor spectrum. Aliquots (150 μL) of the donor solutions were added to a UV analysis plate and read as donor spectrum. The permeability coefficient of test compounds was calculated using PAMPA Explorer™ software (version 3.5.0.4) based on the AUC of the reference plate, the donor plate, and the acceptor plate.

T1 sequence (Q15858 whole entry): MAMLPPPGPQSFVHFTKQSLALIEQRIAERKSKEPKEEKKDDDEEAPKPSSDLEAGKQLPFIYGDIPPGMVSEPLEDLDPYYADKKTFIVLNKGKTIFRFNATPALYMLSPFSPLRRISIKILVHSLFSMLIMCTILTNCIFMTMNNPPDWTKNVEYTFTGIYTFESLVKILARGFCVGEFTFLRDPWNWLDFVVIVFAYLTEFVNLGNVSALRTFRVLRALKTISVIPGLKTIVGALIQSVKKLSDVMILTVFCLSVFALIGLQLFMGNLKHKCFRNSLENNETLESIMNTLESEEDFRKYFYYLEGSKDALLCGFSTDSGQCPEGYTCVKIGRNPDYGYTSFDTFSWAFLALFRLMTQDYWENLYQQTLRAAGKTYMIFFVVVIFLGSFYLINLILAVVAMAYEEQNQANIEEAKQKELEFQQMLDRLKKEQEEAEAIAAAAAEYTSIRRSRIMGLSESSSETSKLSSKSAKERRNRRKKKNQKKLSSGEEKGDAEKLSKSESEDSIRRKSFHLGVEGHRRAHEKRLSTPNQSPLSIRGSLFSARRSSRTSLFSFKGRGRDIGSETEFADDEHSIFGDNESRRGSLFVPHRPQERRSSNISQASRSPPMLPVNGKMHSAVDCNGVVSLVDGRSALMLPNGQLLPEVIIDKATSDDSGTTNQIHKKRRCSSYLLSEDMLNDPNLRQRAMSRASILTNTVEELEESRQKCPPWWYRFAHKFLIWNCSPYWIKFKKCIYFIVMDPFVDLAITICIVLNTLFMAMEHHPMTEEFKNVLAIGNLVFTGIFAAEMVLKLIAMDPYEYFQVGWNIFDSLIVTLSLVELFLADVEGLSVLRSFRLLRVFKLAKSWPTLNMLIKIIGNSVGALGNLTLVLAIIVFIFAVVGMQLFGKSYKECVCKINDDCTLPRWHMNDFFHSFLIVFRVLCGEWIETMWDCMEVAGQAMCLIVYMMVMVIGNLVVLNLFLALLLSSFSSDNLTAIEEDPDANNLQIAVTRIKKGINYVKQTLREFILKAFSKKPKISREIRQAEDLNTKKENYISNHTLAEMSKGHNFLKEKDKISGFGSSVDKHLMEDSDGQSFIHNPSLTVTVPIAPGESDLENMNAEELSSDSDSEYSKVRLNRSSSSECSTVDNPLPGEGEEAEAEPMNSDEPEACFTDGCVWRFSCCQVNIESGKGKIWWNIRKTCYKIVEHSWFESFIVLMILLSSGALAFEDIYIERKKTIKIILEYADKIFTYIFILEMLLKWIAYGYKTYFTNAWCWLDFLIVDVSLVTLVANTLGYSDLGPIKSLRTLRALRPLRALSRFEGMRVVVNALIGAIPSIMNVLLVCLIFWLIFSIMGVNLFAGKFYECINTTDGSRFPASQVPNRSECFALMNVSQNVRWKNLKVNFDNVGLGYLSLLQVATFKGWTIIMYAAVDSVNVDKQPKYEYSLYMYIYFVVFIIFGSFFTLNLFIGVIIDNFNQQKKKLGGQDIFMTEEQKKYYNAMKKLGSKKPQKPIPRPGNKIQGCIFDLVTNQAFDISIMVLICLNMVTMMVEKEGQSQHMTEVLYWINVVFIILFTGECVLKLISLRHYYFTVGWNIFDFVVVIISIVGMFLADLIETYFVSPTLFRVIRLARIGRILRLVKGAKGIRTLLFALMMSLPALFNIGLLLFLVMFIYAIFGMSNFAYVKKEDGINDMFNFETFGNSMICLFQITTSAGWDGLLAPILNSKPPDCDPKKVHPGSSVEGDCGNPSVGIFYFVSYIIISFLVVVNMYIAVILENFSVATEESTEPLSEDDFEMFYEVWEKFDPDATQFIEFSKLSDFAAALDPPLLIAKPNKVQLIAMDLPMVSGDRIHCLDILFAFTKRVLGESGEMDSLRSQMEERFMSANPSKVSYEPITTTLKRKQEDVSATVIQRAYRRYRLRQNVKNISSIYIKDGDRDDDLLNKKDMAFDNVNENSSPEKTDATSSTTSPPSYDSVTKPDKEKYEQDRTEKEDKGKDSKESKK

| Compound | inhibition at 10 µM [1] [%] | inhibition at 30 µM [2] [%] | Papp at 4 h, 50 uM [3] [×10⁻⁶ cm/s] |
| --- | --- | --- | --- |
| Cc1cccc(C)c1NC(=O)C[n+]1ccccc1-c1ccccc1.[Br-] [2′A, 1-(2-((2,6-dimethylphenyl)amino)-2-oxoethyl)-2-phenylpyridin-1-ium bromide] | > 75 | < 45 | < 1 |
| CCc1ccc[n+](CC(=O)Nc2c(C)cccc2C)c1.[Br-] [3′A, 1-(2-((2,6-dimethylphenyl)amino)-2-oxoethyl)-3-ethylpyridin-1-ium bromide] | > 75 | < 45 | < 1 |

Now from value to compound:

| inhibition at 10 µM [1] [%] | inhibition at 30 µM [2] [%] | Papp at 4 h, 50 uM [3] [×10⁻⁶ cm/s] | Compound |
| --- | --- | --- | --- |
| > 75 | < 45 | < 1 | Cc1cccc(C)c1NC(=O)C[n+]1cccc(-c2ccccc2)c1.[Br-] [1′A, 1-(2-((2,6-dimethylphenyl)amino)-2-oxoethyl)-3-phenylpyridin-1-ium bromide] |
| > 75 | < 45 | < 1 | CCc1cccc[n+]1CC(=O)Nc1c(C)cccc1C.[Br-] [4′A, 1-(2-((2,6-dimethylphenyl)amino)-2-oxoethyl)-2-ethylpyridin-1-ium bromide] |
| > 75 | < 45 | – | CCOC(=O)c1ccc[n+](CC(=O)Nc2c(C)cccc2C)c1 [5′A, 1-(2-((2,6-dimethylphenyl)amino)-2-oxoethyl)-3-(ethoxycarbonyl)pyridin-1-ium bromide] |
